In PMC10905675, “INX-315, a Selective CDK2 Inhibitor, Induces Cell Cycle Arrest and Senescence in Solid Tumors” (Cancer Discovery, 2023):

Experiments:
Test in all cases: SelectScreen ZLYTE
Assay type in all cases: biochemical
Conditions in all cases: INX-0315 at 100nM
ABL1 E255K = biological target: T1, ABL1 E255K (Homo sapiens, UniProt P00519, E255K)
T1 construct: purchased Thermo Fisher Scientific SelectScreen (plus Nanosyn / Reaction Biology for CDK/cyclin lines)
Excerpt: (§1) INX-315 was first evaluated in the SelectScreen Biochemical Kinase Profiling at Thermo Fisher Scientific (Madison, WI). The primary screen consisted of INX-315 dosed at a single concentration of 100 nmol/L in 1% DMSO across each platform within the SelectScreen array of assays, LanthaScreen Eu Kinase Binding Assay; AdaptaScreen; and Z'LyteScreen using preestablished conditions at Thermo Fisher Scientific as shown in Supplementary Table S2. […] The follow-up screen consisted of 10-point dose–response curves for INX-315 from 1 µmol/L to 0.0495 nmol/L.

ABL1 T315I = biological target: T2, ABL1 T315I (Homo sapiens, UniProt P00519, T315I)
T2 construct: purchased Thermo Fisher Scientific SelectScreen (plus Nanosyn / Reaction Biology for CDK/cyclin lines)
Excerpt: as §1

ABL2 (Arg) = biological target: T3, ABL2 (Arg) (Homo sapiens, UniProt P42684)
T3 construct: purchased Thermo Fisher Scientific SelectScreen (plus Nanosyn / Reaction Biology for CDK/cyclin lines)
Excerpt: as §1

BRSK1 (SAD1) = biological target: T4, BRSK1 (SAD1) (Homo sapiens, UniProt Q8TDC3)
T4 construct: purchased Thermo Fisher Scientific SelectScreen (plus Nanosyn / Reaction Biology for CDK/cyclin lines)
Excerpt: as §1

CAMK2B (CaMKII beta) = biological target: T5, CAMK2B (CaMKII beta) (Homo sapiens, UniProt Q13554)
T5 construct: purchased Thermo Fisher Scientific SelectScreen (plus Nanosyn / Reaction Biology for CDK/cyclin lines)
Excerpt: as §1

CDK17/cyclin Y = biological target: T6, CDK17/cyclin Y (Homo sapiens, UniProt Q00537)
T6 construct: purchased Thermo Fisher Scientific SelectScreen (plus Nanosyn / Reaction Biology for CDK/cyclin lines)
Excerpt: as §1

CSNK1G3 (CK1 gamma 3) = biological target: T7, CSNK1G3 (CK1 gamma 3) (Homo sapiens, UniProt Q9Y6M4)
T7 construct: purchased Thermo Fisher Scientific SelectScreen (plus Nanosyn / Reaction Biology for CDK/cyclin lines)
Excerpt: as §1

FGFR3 K650E = biological target: T8, FGFR3 K650E (Homo sapiens, UniProt P22607, K650E)
T8 construct: purchased Thermo Fisher Scientific SelectScreen (plus Nanosyn / Reaction Biology for CDK/cyclin lines)
Excerpt: as §1

FGR = biological target: T9, FGR (Homo sapiens, UniProt P09769)
T9 construct: purchased Thermo Fisher Scientific SelectScreen (plus Nanosyn / Reaction Biology for CDK/cyclin lines)
Excerpt: as §1

GRK6 = biological target: T10, GRK6 (Homo sapiens, UniProt P43250)
T10 construct: purchased Thermo Fisher Scientific SelectScreen (plus Nanosyn / Reaction Biology for CDK/cyclin lines)
Excerpt: as §1

GRK7 = biological target: T11, GRK7 (Homo sapiens, UniProt Q8WTQ7)
T11 construct: purchased Thermo Fisher Scientific SelectScreen (plus Nanosyn / Reaction Biology for CDK/cyclin lines)
Excerpt: as §1

ITK = biological target: T12, ITK (Homo sapiens, UniProt Q08881)
T12 construct: purchased Thermo Fisher Scientific SelectScreen (plus Nanosyn / Reaction Biology for CDK/cyclin lines)
Excerpt: as §1

KIT V560G = biological target: T13, KIT V560G (Homo sapiens, UniProt P10721, V560G)
T13 construct: purchased Thermo Fisher Scientific SelectScreen (plus Nanosyn / Reaction Biology for CDK/cyclin lines)
Excerpt: as §1

KSR2 = biological target: T14, KSR2 (Homo sapiens, UniProt Q6VAB6)
T14 construct: purchased Thermo Fisher Scientific SelectScreen (plus Nanosyn / Reaction Biology for CDK/cyclin lines)
Excerpt: as §1

MAP2K6 (MKK6) = biological target: T15, MAP2K6 (MKK6) (Homo sapiens, UniProt P52564)
T15 construct: purchased Thermo Fisher Scientific SelectScreen (plus Nanosyn / Reaction Biology for CDK/cyclin lines)
Excerpt: as §1

MAPK14 (p38 alpha) = biological target: T16, MAPK14 (p38 alpha) (Homo sapiens, UniProt Q16539)
T16 construct: purchased Thermo Fisher Scientific SelectScreen (plus Nanosyn / Reaction Biology for CDK/cyclin lines)
Excerpt: as §1

[1] = biological target: T17, MAPK14 (p38 alpha) Direct (Homo sapiens, UniProt Q16539)
T17 construct: purchased Thermo Fisher Scientific SelectScreen (plus Nanosyn / Reaction Biology for CDK/cyclin lines)
Excerpt: as §1

MAPKAPK3 = biological target: T18, MAPKAPK3 (Homo sapiens, UniProt Q16644)
T18 construct: purchased Thermo Fisher Scientific SelectScreen (plus Nanosyn / Reaction Biology for CDK/cyclin lines)
Excerpt: as §1

MET M1250T = biological target: T19, MET M1250T (Homo sapiens, UniProt P08581, M1250T)
T19 construct: purchased Thermo Fisher Scientific SelectScreen (plus Nanosyn / Reaction Biology for CDK/cyclin lines)
Excerpt: as §1

MYLK2 (skMLCK) = biological target: T20, MYLK2 (skMLCK) (Homo sapiens, UniProt Q9H1R3)
T20 construct: purchased Thermo Fisher Scientific SelectScreen (plus Nanosyn / Reaction Biology for CDK/cyclin lines)
Excerpt: as §1

PAK4 = biological target: T21, PAK4 (Homo sapiens, UniProt O96013)
T21 construct: purchased Thermo Fisher Scientific SelectScreen (plus Nanosyn / Reaction Biology for CDK/cyclin lines)
Excerpt: as §1

PDGFRB (PDGFR beta) = biological target: T22, PDGFRB (PDGFR beta) (Homo sapiens, UniProt P09619)
T22 construct: purchased Thermo Fisher Scientific SelectScreen (plus Nanosyn / Reaction Biology for CDK/cyclin lines)
Excerpt: as §1

PDK1 Direct = biological target: T23, PDK1 Direct (Homo sapiens, UniProt O15530)
T23 construct: purchased Thermo Fisher Scientific SelectScreen (plus Nanosyn / Reaction Biology for CDK/cyclin lines)
Excerpt: as §1

PEAK1 = biological target: T24, PEAK1 (Homo sapiens, UniProt Q9H792)
T24 construct: purchased Thermo Fisher Scientific SelectScreen (plus Nanosyn / Reaction Biology for CDK/cyclin lines)
Excerpt: as §1

PLK1 = biological target: T25, PLK1 (Homo sapiens, UniProt P53350)
T25 construct: purchased Thermo Fisher Scientific SelectScreen (plus Nanosyn / Reaction Biology for CDK/cyclin lines)
Excerpt: as §1

PLK3 = biological target: T26, PLK3 (Homo sapiens, UniProt Q9H4B4)
T26 construct: purchased Thermo Fisher Scientific SelectScreen (plus Nanosyn / Reaction Biology for CDK/cyclin lines)
Excerpt: as §1

PRKCD (PKC delta) = biological target: T27, PRKCD (PKC delta) (Homo sapiens, UniProt Q05655)
T27 construct: purchased Thermo Fisher Scientific SelectScreen (plus Nanosyn / Reaction Biology for CDK/cyclin lines)
Excerpt: as §1

PRKCH (PKC eta) = biological target: T28, PRKCH (PKC eta) (Homo sapiens, UniProt P24723)
T28 construct: purchased Thermo Fisher Scientific SelectScreen (plus Nanosyn / Reaction Biology for CDK/cyclin lines)
Excerpt: as §1

PRKCI (PKC iota) = biological target: T29, PRKCI (PKC iota) (Homo sapiens, UniProt P41743)
T29 construct: purchased Thermo Fisher Scientific SelectScreen (plus Nanosyn / Reaction Biology for CDK/cyclin lines)
Excerpt: as §1

PTK2 (FAK) = biological target: T30, PTK2 (FAK) (Homo sapiens, UniProt Q05397)
T30 construct: purchased Thermo Fisher Scientific SelectScreen (plus Nanosyn / Reaction Biology for CDK/cyclin lines)
Excerpt: as §1

ROCK2 = biological target: T31, ROCK2 (Homo sapiens, UniProt O75116)
T31 construct: purchased Thermo Fisher Scientific SelectScreen (plus Nanosyn / Reaction Biology for CDK/cyclin lines)
Excerpt: as §1

RPS6KA4 (MSK2) = biological target: T32, RPS6KA4 (MSK2) (Homo sapiens, UniProt O75676)
T32 construct: purchased Thermo Fisher Scientific SelectScreen (plus Nanosyn / Reaction Biology for CDK/cyclin lines)
Excerpt: as §1

RPS6KB2 (p70S6Kb) = biological target: T33, RPS6KB2 (p70S6Kb) (Homo sapiens, UniProt Q9UBS0)
T33 construct: purchased Thermo Fisher Scientific SelectScreen (plus Nanosyn / Reaction Biology for CDK/cyclin lines)
Excerpt: as §1

STK24 (MST3) = biological target: T34, STK24 (MST3) (Homo sapiens, UniProt Q9Y6E0)
T34 construct: purchased Thermo Fisher Scientific SelectScreen (plus Nanosyn / Reaction Biology for CDK/cyclin lines)
Excerpt: as §1

TAOK2 (TAO1) = biological target: T35, TAOK2 (TAO1) (Homo sapiens, UniProt Q9UL54)
T35 construct: purchased Thermo Fisher Scientific SelectScreen (plus Nanosyn / Reaction Biology for CDK/cyclin lines)
Excerpt: as §1

TEK (Tie2) = biological target: T36, TEK (Tie2) (Homo sapiens, UniProt Q02763)
T36 construct: purchased Thermo Fisher Scientific SelectScreen (plus Nanosyn / Reaction Biology for CDK/cyclin lines)
Excerpt: as §1

TYRO3 (RSE) = biological target: T37, TYRO3 (RSE) (Homo sapiens, UniProt Q06418)
T37 construct: purchased Thermo Fisher Scientific SelectScreen (plus Nanosyn / Reaction Biology for CDK/cyclin lines)
Excerpt: as §1

T23 sequence (O15530 whole entry): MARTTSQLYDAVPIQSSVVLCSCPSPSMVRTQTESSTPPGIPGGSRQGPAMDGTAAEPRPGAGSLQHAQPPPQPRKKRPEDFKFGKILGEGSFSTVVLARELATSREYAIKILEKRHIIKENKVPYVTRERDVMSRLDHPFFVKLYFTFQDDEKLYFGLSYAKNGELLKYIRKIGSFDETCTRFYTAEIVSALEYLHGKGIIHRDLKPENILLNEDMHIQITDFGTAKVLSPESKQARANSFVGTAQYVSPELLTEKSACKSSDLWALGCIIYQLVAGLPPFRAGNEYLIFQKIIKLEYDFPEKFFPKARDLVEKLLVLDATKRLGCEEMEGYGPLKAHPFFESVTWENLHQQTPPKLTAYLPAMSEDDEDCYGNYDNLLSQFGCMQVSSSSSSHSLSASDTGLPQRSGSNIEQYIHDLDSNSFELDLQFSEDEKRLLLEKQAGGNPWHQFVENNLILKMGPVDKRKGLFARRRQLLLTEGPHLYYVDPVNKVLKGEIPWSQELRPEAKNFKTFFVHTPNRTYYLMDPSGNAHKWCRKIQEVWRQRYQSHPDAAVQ
T28 sequence (P24723 whole entry): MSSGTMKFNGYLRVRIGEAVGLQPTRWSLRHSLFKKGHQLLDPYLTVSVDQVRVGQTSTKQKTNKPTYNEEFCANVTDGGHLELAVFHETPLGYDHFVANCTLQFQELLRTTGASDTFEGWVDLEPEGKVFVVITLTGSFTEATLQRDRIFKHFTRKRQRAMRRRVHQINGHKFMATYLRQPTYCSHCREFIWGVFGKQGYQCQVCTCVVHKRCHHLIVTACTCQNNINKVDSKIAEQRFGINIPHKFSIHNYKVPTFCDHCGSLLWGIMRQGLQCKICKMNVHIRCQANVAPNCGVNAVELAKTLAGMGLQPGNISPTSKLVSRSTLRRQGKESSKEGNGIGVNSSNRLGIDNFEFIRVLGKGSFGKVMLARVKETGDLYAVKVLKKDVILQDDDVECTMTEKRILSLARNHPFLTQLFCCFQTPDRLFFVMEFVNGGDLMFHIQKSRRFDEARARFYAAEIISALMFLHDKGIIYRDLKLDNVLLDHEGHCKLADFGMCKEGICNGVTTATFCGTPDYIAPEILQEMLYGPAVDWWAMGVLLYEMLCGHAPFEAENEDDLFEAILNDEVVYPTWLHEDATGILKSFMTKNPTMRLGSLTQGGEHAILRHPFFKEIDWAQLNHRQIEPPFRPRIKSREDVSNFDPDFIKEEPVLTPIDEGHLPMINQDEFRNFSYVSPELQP
T15 sequence (P52564 whole entry): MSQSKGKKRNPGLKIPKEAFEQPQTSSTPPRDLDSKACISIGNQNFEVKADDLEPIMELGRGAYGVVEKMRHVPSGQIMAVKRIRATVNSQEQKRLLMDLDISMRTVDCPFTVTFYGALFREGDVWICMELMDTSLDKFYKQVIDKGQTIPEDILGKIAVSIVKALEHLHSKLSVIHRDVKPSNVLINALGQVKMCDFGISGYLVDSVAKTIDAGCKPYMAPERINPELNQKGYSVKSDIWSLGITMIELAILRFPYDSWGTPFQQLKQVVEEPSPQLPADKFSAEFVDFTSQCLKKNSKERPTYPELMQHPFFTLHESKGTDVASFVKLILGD
T3 sequence (P42684 whole entry): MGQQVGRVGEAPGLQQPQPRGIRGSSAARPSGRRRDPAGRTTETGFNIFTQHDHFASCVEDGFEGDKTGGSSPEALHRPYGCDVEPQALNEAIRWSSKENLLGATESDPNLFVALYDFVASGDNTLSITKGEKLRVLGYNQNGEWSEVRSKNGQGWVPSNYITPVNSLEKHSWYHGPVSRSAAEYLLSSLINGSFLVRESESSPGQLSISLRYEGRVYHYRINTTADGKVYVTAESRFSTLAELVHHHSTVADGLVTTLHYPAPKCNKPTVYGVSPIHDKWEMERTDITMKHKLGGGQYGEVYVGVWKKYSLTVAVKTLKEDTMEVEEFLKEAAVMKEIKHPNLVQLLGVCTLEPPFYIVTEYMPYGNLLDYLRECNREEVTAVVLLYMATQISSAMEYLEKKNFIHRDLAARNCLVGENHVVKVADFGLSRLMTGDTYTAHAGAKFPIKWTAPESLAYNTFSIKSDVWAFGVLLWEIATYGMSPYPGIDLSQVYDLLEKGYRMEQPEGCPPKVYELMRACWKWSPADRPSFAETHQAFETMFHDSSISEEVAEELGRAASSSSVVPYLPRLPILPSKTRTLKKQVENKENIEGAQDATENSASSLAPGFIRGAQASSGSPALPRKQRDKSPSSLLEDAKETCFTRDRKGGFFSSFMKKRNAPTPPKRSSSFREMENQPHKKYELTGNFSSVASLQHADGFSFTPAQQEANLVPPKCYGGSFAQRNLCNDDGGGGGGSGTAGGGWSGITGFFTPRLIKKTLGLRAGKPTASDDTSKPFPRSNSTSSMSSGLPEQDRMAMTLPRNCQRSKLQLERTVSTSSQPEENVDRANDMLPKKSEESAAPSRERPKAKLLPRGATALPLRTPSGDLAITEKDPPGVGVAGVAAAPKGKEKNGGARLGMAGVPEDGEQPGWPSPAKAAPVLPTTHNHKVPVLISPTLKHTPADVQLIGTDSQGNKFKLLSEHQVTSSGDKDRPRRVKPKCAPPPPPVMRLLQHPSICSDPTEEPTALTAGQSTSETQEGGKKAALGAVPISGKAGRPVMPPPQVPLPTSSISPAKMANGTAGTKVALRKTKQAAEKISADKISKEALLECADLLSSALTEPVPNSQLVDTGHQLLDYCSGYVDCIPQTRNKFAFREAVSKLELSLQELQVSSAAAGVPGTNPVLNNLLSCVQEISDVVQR
T33 sequence (Q9UBS0 whole entry): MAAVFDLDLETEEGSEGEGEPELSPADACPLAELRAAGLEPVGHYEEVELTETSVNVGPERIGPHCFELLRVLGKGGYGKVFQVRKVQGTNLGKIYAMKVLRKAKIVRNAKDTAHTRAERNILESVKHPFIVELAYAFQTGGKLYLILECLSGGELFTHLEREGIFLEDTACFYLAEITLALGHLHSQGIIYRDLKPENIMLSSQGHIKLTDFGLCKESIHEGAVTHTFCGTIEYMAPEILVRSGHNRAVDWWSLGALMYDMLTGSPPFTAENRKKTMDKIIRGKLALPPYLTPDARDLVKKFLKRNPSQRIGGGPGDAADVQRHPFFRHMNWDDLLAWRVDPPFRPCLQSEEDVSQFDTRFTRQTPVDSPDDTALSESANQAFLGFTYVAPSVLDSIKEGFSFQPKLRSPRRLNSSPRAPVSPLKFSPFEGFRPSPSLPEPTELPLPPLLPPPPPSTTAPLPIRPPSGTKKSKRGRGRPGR
T24 sequence (Q9H792 whole entry): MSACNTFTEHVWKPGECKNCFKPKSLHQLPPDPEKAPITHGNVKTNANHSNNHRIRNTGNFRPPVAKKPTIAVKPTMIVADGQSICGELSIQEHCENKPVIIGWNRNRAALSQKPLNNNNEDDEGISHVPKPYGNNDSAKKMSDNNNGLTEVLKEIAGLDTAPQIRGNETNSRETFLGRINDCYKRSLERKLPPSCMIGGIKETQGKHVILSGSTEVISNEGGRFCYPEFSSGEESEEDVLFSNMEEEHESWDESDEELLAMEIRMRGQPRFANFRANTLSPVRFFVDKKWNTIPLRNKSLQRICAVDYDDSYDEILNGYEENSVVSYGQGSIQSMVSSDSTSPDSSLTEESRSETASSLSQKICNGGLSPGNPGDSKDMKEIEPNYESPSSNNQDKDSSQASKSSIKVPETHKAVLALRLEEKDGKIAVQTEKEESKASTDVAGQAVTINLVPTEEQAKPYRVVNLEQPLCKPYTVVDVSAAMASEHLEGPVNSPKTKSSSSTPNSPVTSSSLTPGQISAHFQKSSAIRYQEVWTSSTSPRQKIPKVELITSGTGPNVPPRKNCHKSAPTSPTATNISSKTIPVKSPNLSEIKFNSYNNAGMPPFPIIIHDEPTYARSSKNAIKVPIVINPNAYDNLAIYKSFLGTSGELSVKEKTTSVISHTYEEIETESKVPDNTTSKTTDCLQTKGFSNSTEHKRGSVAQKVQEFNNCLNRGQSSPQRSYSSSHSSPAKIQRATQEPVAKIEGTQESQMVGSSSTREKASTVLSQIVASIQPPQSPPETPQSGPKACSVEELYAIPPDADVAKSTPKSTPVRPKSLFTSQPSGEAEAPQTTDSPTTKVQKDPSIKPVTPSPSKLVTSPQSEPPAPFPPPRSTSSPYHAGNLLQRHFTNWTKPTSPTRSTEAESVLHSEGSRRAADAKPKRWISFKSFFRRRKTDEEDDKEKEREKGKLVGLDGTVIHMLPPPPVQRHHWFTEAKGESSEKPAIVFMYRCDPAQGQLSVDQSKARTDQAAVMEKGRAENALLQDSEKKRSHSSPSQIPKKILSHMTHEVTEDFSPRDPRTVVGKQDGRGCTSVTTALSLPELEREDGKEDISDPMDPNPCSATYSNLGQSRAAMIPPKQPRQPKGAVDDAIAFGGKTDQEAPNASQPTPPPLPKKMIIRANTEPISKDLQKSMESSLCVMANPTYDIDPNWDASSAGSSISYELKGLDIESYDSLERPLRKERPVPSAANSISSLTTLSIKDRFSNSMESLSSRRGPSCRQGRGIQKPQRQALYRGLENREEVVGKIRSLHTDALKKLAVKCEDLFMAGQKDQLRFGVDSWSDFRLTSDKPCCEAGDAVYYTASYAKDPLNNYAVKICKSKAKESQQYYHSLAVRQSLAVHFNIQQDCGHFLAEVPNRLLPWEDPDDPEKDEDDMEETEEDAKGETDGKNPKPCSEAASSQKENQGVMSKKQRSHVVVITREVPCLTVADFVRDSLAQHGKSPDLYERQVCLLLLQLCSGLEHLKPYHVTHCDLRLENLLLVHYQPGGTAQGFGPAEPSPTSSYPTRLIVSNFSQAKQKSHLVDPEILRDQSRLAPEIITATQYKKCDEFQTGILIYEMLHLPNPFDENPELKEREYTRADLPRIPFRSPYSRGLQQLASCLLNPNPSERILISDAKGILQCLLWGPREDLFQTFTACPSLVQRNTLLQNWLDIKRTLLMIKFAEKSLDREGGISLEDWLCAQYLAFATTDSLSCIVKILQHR

**Q.** How did the inhibition at 0.1 µM (ABL1 E255K) turn out when `NS(=O)(=O)c1ccc(Nc2ncc3cc4n(c3n2)C2(CCCCC2)C(=O)NN4)cc1` [INX-315] was run?
**A.** Its inhibition at 0.1 µM is 11%.

**Q.** And the inhibition at 0.1 µM (ABL1 T315I)?
**A.** Its inhibition at 0.1 µM is 10%.

**Q.** And the inhibition at 0.1 µM (ABL2 (Arg))?
**A.** The inhibition at 0.1 µM was 14%.

**Q.** What about the inhibition at 0.1 µM (BRSK1 (SAD1)) of the same compound?
**A.** Its inhibition at 0.1 µM is 16%.

**Q.** And the inhibition at 0.1 µM (CAMK2B (CaMKII beta))?
**A.** Its inhibition at 0.1 µM is 17%.

**Q.** What about the inhibition at 0.1 µM (CDK17/cyclin Y) of the same compound?
**A.** Its inhibition at 0.1 µM is 20%.

**Q.** What about the inhibition at 0.1 µM (CSNK1G3 (CK1 gamma 3)) of the same compound?
**A.** The inhibition at 0.1 µM was -1%.

**Q.** And the inhibition at 0.1 µM (FGFR3 K650E)?
**A.** The inhibition at 0.1 µM was 31%.

**Q.** And the inhibition at 0.1 µM (FGR)?
**A.** Its inhibition at 0.1 µM is 11%.

**Q.** What about the inhibition at 0.1 µM (GRK6) of the same compound?
**A.** Its inhibition at 0.1 µM is 30%.

**Q.** What about the inhibition at 0.1 µM (GRK7) of the same compound?
**A.** Its inhibition at 0.1 µM is 62%.

**Q.** What about the inhibition at 0.1 µM (ITK) of the same compound?
**A.** Its inhibition at 0.1 µM is 5%.

**Q.** What about the inhibition at 0.1 µM (KIT V560G) of the same compound?
**A.** The inhibition at 0.1 µM was 27%.

**Q.** And the inhibition at 0.1 µM (KSR2)?
**A.** The inhibition at 0.1 µM was 7%.

**Q.** And the inhibition at 0.1 µM (MAP2K6 (MKK6))?
**A.** The inhibition at 0.1 µM was 3%.

**Q.** And the inhibition at 0.1 µM (MAPK14 (p38 alpha))?
**A.** The inhibition at 0.1 µM was 1%.

**Q.** And the inhibition at 0.1 µM [1]?
**A.** Its inhibition at 0.1 µM is 5%.

**Q.** And the inhibition at 0.1 µM (MAPKAPK3)?
**A.** Its inhibition at 0.1 µM is 8%.

**Q.** And the inhibition at 0.1 µM (MET M1250T)?
**A.** The inhibition at 0.1 µM was 3%.

**Q.** What about the inhibition at 0.1 µM (MYLK2 (skMLCK)) of the same compound?
**A.** The inhibition at 0.1 µM was 4%.

**Q.** What about the inhibition at 0.1 µM (PAK4) of the same compound?
**A.** Its inhibition at 0.1 µM is 7%.

**Q.** And the inhibition at 0.1 µM (PDGFRB (PDGFR beta))?
**A.** The inhibition at 0.1 µM was 25%.

**Q.** And the inhibition at 0.1 µM (PDK1 Direct)?
**A.** Its inhibition at 0.1 µM is 8%.

**Q.** And the inhibition at 0.1 µM (PEAK1)?
**A.** Its inhibition at 0.1 µM is 10%.

**Q.** And the inhibition at 0.1 µM (PLK1)?
**A.** The inhibition at 0.1 µM was 4%.

**Q.** What about the inhibition at 0.1 µM (PLK3) of the same compound?
**A.** Its inhibition at 0.1 µM is -2%.

**Q.** What about the inhibition at 0.1 µM (PRKCD (PKC delta)) of the same compound?
**A.** The inhibition at 0.1 µM was -5%.

**Q.** And the inhibition at 0.1 µM (PRKCH (PKC eta))?
**A.** Its inhibition at 0.1 µM is 11%.

**Q.** And the inhibition at 0.1 µM (PRKCI (PKC iota))?
**A.** The inhibition at 0.1 µM was -5%.

**Q.** And the inhibition at 0.1 µM (PTK2 (FAK))?
**A.** Its inhibition at 0.1 µM is 8%.

**Q.** And the inhibition at 0.1 µM (ROCK2)?
**A.** Its inhibition at 0.1 µM is 6%.

**Q.** What about the inhibition at 0.1 µM (RPS6KA4 (MSK2)) of the same compound?
**A.** The inhibition at 0.1 µM was 4%.

**Q.** What about the inhibition at 0.1 µM (RPS6KB2 (p70S6Kb)) of the same compound?
**A.** Its inhibition at 0.1 µM is 4%.

**Q.** What about the inhibition at 0.1 µM (STK24 (MST3)) of the same compound?
**A.** Its inhibition at 0.1 µM is 11%.

**Q.** What about the inhibition at 0.1 µM (TAOK2 (TAO1)) of the same compound?
**A.** Its inhibition at 0.1 µM is 10%.

**Q.** And the inhibition at 0.1 µM (TEK (Tie2))?
**A.** Its inhibition at 0.1 µM is -1%.

**Q.** And the inhibition at 0.1 µM (TYRO3 (RSE))?
**A.** Its inhibition at 0.1 µM is 14%.
